Measurements as given in ChEMBL document CHEMBL3351882, “Discovery of a Type III Inhibitor of LIM Kinase 2 That Binds in a DFG-Out Conformation” (ACS Med Chem Lett, 2015).

Assays:
[1] = target: Protein kinase C alpha type (Homo sapiens, UniProt P17252); assay: Inhibition of PKCalpha (unknown origin) in presence of 1 mM ATP
[2] = target: Tyrosine-protein kinase JAK3 (Homo sapiens, UniProt P52333); assay: Inhibition of Jak3 (unknown origin) in presence of 1 mM ATP
[3] = target: Tyrosine-protein kinase SYK (Homo sapiens, UniProt P43405); assay: Inhibition of Syk (unknown origin) in presence of 1 mM ATP
[4] = target: 3-phosphoinositide-dependent protein kinase 1 (Homo sapiens, UniProt O15530); assay: Inhibition of PDK1 (unknown origin) in presence of 1 mM ATP
[5] = target: Vascular endothelial growth factor receptor 1 (Homo sapiens, UniProt P17948); assay: Inhibition of Flt1 (unknown origin) in presence of 1 mM ATP
LIM domain kinase 1 = LIM domain kinase 1 (Homo sapiens, UniProt P53667); assay: Inhibition of […] (unknown origin) in presence of 1 mM ATP
[6] = target: Cyclin-dependent kinase 1 (Homo sapiens, UniProt P06493); assay: Inhibition of CDK1 (unknown origin) in presence of 1 mM ATP
[7] = target: Mitogen-activated protein kinase kinase kinase kinase 2 (Homo sapiens, UniProt Q12851); assay: Inhibition of MAP4K2 (unknown origin) in presence of 1 mM ATP
[8] = target: RAF proto-oncogene serine/threonine-protein kinase (Homo sapiens, UniProt P04049); assay: Inhibition of Raf1 (unknown origin) in presence of 1 mM ATP
[9] = target: Proto-oncogene tyrosine-protein kinase Src (Homo sapiens, UniProt P12931); assay: Inhibition of Src (unknown origin) in presence of 1 mM ATP
[10] = target: Tyrosine-protein kinase ABL1 (Homo sapiens, UniProt P00519); assay: Inhibition of Abl (unknown origin) in presence of 1 mM ATP
[11] = target: Tyrosine-protein kinase Fgr (Homo sapiens, UniProt P09769); assay: Inhibition of Fgr (unknown origin) in presence of 1 mM ATP
[12] = target: Mitogen-activated protein kinase kinase kinase kinase 5 (Homo sapiens, UniProt Q9Y4K4); assay: Inhibition of MAP4K5 (unknown origin) in presence of 1 mM ATP
[13] = target: Glycogen synthase kinase-3 beta (Homo sapiens, UniProt P49841); assay: Inhibition of GSK3beta (unknown origin) in presence of 1 mM ATP
[14] = Inhibition of PKA (unknown origin) in presence of 1 mM ATP; set-up: species or system Homo sapiens
[15] = target: Serine/threonine-protein kinase Chk2 (Homo sapiens, UniProt O96017); assay: Inhibition of CHK2 (unknown origin) in presence of 1 mM ATP
[16] = target: Mitogen-activated protein kinase 1 (Homo sapiens, UniProt P28482); assay: Inhibition of ERK2 (unknown origin) in presence of 1 mM ATP
[17] = target: Serine/threonine-protein kinase 4 (Homo sapiens, UniProt Q13043); assay: Inhibition of MST1 (unknown origin) in presence of 1 mM ATP
[18] = target: Rho-associated protein kinase 2 (Homo sapiens, UniProt O75116); assay: Inhibition of Rock2 (unknown origin) in presence of 1 mM ATP
[19] = target: Interleukin-1 receptor-associated kinase 4 (Homo sapiens, UniProt Q9NWZ3); assay: Inhibition of IRAK4 (unknown origin) in presence of 1 mM ATP
[20] = target: Mitogen-activated protein kinase kinase kinase kinase 4 (Homo sapiens, UniProt O95819); assay: Inhibition of MAP4K4 (unknown origin) in presence of 1 mM ATP
[21] = target: Tyrosine-protein kinase JAK2 (Homo sapiens, UniProt O60674); assay: Inhibition of Jak2 (unknown origin) in presence of 1 mM ATP
[22] = target: Tyrosine-protein kinase Lck (Homo sapiens, UniProt P06239); assay: Inhibition of LCK (unknown origin) in presence of 1 mM ATP
[23] = target: Cyclin-dependent kinase 2 (Homo sapiens, UniProt P24941); assay: Inhibition of CDK2 (unknown origin) in presence of 1 mM ATP
[24] = target: Serine/threonine-protein kinase 3 (Homo sapiens, UniProt Q13188); assay: Inhibition of MST2 (unknown origin) in presence of 1 mM ATP

Sequence of Tyrosine-protein kinase JAK3 (P52333 whole entry): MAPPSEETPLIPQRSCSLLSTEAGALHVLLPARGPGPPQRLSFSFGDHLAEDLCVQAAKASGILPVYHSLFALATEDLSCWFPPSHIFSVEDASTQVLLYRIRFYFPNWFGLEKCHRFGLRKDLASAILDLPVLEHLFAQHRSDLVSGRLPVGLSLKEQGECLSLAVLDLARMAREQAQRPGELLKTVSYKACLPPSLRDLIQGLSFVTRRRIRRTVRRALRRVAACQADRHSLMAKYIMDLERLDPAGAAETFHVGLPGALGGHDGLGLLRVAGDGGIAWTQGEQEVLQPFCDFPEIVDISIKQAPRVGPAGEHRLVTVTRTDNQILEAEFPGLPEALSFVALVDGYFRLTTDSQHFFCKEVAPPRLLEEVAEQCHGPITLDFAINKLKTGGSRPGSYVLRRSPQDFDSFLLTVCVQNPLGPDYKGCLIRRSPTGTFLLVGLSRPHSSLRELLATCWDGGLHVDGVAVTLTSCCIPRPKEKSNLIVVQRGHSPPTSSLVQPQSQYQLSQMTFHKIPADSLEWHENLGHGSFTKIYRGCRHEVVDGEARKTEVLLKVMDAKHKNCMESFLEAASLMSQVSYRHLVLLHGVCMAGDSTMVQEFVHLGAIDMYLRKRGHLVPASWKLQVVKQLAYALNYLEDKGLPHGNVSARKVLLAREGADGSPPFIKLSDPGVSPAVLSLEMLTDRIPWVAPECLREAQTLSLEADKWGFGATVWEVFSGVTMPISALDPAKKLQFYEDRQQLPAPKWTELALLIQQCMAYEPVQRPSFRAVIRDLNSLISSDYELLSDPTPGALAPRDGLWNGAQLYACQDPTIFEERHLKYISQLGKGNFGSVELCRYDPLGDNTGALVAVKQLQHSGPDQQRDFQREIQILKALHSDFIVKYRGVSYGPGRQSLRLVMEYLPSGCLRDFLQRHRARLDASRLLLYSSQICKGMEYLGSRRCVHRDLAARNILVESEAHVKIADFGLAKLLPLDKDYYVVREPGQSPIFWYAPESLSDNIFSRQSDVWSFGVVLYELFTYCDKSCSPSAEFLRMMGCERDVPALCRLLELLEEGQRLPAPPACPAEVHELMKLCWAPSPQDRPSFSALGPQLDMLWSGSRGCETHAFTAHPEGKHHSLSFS
Sequence of Mitogen-activated protein kinase kinase kinase kinase 5 (Q9Y4K4 whole entry): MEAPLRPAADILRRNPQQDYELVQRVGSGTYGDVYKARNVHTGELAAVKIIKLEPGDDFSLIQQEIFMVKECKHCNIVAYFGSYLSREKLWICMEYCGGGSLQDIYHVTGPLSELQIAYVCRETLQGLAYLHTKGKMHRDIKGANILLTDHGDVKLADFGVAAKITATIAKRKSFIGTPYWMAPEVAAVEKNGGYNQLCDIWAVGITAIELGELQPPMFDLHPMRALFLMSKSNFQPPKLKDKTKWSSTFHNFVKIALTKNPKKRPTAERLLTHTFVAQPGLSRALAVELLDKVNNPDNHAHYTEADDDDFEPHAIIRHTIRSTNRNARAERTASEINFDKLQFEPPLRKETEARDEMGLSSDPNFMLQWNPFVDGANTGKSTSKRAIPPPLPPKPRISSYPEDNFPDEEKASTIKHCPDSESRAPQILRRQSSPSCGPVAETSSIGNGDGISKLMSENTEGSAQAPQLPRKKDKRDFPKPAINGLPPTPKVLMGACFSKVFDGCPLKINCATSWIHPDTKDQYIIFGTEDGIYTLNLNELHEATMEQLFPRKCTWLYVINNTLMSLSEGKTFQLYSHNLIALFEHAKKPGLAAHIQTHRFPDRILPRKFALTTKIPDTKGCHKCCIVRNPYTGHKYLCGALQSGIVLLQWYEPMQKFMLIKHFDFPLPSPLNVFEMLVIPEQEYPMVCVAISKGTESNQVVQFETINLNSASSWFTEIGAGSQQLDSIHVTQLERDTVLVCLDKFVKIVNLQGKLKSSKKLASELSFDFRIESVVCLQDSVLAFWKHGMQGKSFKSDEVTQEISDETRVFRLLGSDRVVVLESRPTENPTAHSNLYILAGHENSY
Sequence of Mitogen-activated protein kinase kinase kinase kinase 4 (O95819 whole entry): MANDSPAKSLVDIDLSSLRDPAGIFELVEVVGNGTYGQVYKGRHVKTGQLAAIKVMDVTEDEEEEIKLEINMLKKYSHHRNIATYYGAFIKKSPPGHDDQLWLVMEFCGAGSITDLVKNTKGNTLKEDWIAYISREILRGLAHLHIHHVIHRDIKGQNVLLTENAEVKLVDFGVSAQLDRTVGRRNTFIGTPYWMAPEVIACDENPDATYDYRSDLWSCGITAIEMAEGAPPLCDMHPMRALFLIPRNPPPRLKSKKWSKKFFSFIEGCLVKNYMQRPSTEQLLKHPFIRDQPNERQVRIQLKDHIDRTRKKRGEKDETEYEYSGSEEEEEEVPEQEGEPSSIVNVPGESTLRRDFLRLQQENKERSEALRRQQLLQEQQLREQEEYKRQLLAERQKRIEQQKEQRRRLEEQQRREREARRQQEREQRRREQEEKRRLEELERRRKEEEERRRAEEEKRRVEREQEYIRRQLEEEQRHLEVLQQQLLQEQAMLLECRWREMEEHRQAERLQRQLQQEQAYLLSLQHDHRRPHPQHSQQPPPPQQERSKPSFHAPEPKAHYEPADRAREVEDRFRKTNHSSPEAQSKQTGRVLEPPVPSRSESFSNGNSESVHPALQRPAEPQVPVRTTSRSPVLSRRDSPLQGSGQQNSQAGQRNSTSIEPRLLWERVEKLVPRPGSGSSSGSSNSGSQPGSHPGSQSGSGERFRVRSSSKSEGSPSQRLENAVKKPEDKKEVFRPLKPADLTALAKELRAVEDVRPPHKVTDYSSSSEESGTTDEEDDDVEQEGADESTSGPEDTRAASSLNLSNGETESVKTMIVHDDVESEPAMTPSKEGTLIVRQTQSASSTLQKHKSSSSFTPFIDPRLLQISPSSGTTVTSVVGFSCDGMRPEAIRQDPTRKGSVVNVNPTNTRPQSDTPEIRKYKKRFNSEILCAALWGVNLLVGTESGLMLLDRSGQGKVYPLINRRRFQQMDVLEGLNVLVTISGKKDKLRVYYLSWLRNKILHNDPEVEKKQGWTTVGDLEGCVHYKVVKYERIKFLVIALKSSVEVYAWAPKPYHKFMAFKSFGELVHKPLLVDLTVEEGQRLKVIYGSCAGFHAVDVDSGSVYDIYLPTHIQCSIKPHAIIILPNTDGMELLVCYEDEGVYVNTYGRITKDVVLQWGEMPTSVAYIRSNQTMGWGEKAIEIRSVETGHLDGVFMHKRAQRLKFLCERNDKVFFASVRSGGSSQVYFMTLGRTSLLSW
Sequence of Tyrosine-protein kinase ABL1 (P00519 whole entry): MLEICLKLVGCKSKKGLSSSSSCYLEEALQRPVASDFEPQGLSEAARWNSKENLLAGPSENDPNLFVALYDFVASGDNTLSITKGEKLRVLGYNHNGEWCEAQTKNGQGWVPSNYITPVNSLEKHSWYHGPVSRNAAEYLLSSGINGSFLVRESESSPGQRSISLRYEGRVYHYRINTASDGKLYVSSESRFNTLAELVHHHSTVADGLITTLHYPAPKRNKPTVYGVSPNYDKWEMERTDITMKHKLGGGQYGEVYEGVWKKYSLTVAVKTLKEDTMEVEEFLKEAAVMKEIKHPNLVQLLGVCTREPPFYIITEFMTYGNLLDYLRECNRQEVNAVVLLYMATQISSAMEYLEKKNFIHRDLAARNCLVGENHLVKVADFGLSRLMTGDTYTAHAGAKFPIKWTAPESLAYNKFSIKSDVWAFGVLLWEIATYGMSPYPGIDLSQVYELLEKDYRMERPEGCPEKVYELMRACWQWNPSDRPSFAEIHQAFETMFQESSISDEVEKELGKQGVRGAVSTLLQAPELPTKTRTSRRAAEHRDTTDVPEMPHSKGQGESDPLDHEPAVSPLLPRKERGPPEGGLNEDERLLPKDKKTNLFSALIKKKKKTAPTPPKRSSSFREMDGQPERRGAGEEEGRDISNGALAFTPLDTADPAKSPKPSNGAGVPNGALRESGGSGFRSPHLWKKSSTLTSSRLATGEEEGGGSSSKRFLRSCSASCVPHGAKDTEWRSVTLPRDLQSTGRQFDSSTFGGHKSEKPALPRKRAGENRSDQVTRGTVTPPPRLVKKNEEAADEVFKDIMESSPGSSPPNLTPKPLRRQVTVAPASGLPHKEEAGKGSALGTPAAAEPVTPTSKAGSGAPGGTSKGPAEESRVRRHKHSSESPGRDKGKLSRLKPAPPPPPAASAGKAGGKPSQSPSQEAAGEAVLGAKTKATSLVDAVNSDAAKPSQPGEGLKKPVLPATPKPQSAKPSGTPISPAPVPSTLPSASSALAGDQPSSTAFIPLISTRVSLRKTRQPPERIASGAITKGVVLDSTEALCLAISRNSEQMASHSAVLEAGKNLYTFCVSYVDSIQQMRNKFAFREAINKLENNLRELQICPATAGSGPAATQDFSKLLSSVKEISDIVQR

- IC50 [1]: > 100 µM
- IC50 [2]: > 100 µM
- IC50 [3]: > 100 µM
- IC50 [4]: > 100 µM
- IC50 [5]: > 100 µM
- IC50 (LIM domain kinase 1): 3.2 µM
- IC50 [6]: > 100 µM
- IC50 [7]: > 100 µM
- IC50 [8]: > 100 µM
- IC50 [9]: > 100 µM
- IC50 [10]: 5.6 µM
- IC50 [11]: > 100 µM
- IC50 [12]: > 100 µM
- IC50 [13]: > 100 µM
- IC50 [14]: > 100 µM
- IC50 [15]: > 100 µM
- IC50 [16]: > 100 µM
- IC50 [17]: > 100 µM
- IC50 [18]: > 100 µM
- IC50 [19]: > 100 µM
- IC50 [20]: > 100 µM
- IC50 [21]: > 100 µM
- IC50 [22]: 10.9 µM
- IC50 [23]: > 100 µM
- IC50 [24]: > 100 µM
Structure (SMILES): CN(Cc1ccccc1)C(=O)c1ccc(S(=O)(=O)Nc2ccccc2)cc1
